Assays:
MLK1 = MLK1 (Homo sapiens (Human), UniProt P80192); test: Evaluation of inhibitory activity of enzyme units, MLK1 ([γ-33P]-ATP filter assay); format: biochemical
[1] = tested on: human breast cancer cell line MDA-MB-231; test: Cancer cell proliferation inhibitory activity evaluation 1 (CCK-8), MDA-MB-231; format: cell-based; details: MDA-MB-231, 72 h, read-out: Cancer cell proliferation inhibitory activity MDAMB231
[2] = tested on: acute myeloid leukemia cell line U937; test: Cancer cell proliferation inhibitory activity evaluation 1 (CCK-8), U937; format: cell-based; details: Homo sapiens, U-937, 72 h, read-out: Cancer cell proliferation inhibitory activity U937
[3] = tested on: colorectal cancer cell line HT-29; test: Cancer cell proliferation inhibitory activity evaluation 1 (CCK-8), HT-29; format: cell-based; details: Homo sapiens, HT-29, 72 h, read-out: Cancer cell proliferation inhibitory activity HT29
[4] = tested on: chronic myeloid leukemia cell line K562; test: Cancer cell proliferation inhibitory activity evaluation 1 (CCK-8), K562; format: cell-based; details: Homo sapiens, K562, 72 h, read-out: Cancer cell proliferation inhibitory activity K562
[5] = tested on: acute myeloid leukemia cell line U937; test: Cancer cell proliferation inhibitory activity evaluation 2 (CCK-8), U937; format: cell-based; details: Homo sapiens, U-937, 72 h, read-out: Cancer cell proliferation inhibitory activity U937
[6] = tested on: acute lymphoblastic leukemia cell line Jurkat; test: Cancer cell proliferation inhibitory activity evaluation 2 (CCK-8), Jurkat; format: cell-based; details: Homo sapiens, 72 h, read-out: Cancer cell proliferation inhibitory activity Jurkat
[7] = tested on: gastric cancer cell line AGS; test: Cancer cell proliferation inhibitory activity evaluation 2 (CCK-8), AGS; format: cell-based; details: Homo sapiens, 72 h, read-out: Cancer cell proliferation inhibitory activity AGS
α-SMA [8] = test: Fibrosis inhibition evaluation 1, palmitic acid-induced HepG2, real-time PCR, α-SMA; format: cell-based, human; details: palmitic acid-induced HepG2 (Table 6)
Col1A1 = test: Fibrosis inhibition evaluation 1, palmitic acid-induced HepG2, real-time PCR, Col1A1; format: cell-based, human
Col6A3 = test: Fibrosis inhibition evaluation 1, palmitic acid-induced HepG2, real-time PCR, Col6A3; format: cell-based, human
LRRK2 wild-type = LRRK2 wild-type (Homo sapiens (Human), UniProt Q5S007); test: Evaluation of inhibitory activity against LRRK2 (affinity bead competition binding), wild-type; details: read-out: Residual active values (%) LRRK2; for remaining binding at 0.1 µM: 100 nM; for remaining binding at 0.5 µM: 500 nM
Chain of LRRK2 wild-type (Q5S007 whole entry, looked up): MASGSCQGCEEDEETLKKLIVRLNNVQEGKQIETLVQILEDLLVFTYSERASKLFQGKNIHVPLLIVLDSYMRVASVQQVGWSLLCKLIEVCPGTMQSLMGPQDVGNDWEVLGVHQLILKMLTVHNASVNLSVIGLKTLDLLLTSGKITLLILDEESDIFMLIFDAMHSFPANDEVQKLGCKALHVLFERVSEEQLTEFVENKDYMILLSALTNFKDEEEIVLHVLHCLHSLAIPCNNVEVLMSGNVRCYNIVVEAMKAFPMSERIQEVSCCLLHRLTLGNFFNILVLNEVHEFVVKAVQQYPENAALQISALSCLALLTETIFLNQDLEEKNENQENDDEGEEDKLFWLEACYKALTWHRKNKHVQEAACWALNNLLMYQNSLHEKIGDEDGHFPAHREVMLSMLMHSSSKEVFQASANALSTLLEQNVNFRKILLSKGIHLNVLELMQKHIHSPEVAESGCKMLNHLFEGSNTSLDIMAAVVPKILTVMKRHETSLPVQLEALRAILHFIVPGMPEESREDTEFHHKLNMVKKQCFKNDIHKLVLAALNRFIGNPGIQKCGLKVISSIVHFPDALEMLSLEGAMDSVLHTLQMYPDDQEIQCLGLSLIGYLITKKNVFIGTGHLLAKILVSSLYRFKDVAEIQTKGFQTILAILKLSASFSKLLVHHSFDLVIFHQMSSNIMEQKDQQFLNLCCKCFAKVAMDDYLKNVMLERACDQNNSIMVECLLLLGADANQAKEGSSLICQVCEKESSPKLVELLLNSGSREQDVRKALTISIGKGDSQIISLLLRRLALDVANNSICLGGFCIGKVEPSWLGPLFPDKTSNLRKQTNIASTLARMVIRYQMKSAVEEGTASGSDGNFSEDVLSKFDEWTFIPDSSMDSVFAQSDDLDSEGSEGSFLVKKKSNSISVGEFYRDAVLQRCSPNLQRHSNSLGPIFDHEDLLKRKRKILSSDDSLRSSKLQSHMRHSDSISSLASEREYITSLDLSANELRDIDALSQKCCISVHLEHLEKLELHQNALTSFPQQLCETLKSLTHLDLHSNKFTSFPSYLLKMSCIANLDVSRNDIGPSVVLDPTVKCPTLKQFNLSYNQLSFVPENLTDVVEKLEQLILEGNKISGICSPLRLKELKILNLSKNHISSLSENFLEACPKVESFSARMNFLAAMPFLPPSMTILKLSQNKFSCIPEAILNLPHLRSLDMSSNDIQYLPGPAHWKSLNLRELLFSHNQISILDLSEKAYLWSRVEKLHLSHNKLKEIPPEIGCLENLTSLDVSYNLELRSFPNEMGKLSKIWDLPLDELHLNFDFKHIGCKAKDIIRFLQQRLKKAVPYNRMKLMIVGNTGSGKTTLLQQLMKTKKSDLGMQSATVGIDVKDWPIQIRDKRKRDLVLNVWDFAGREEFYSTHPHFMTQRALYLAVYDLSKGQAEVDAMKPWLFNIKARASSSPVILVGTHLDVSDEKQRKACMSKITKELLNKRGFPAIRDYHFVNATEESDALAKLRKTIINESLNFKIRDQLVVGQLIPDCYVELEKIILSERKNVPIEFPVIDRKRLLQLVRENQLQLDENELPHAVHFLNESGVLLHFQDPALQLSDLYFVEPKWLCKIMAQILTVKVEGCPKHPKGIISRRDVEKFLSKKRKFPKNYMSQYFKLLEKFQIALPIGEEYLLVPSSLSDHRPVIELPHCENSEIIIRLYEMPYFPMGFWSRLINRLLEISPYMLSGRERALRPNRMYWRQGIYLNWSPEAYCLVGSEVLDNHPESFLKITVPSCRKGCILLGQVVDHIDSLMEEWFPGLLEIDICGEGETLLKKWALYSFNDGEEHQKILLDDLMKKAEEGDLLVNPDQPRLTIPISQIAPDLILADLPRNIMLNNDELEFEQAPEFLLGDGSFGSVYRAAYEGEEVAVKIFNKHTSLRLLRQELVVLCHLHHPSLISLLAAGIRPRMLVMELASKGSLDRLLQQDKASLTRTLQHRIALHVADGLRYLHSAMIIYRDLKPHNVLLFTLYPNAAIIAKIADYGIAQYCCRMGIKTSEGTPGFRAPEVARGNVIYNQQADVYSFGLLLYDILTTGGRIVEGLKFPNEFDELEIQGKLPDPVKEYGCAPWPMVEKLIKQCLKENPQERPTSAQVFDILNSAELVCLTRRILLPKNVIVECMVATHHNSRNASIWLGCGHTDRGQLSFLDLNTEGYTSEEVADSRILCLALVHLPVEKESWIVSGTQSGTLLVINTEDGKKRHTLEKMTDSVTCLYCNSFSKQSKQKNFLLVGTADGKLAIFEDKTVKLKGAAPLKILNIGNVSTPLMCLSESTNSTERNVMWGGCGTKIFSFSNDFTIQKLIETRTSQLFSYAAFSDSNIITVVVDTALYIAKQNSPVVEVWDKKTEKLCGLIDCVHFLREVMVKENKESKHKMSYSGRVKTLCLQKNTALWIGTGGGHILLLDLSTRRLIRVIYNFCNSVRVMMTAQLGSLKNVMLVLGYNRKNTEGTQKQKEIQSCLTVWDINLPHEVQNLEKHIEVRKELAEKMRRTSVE
Method in brief: (§1)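 Competition binding against immobilized biotinylated ligand for DNA-tagged wild-type or G2019S LRRK2, produced from T7 phage-infected E. coli (MOI 0.4, 32° C.) lysate then HEK293 cells. Beads blocked and washed in SeaBlock buffer (1% BSA, 0.05% Tween 20, 1 mM DTT); compounds prepared as 40× stocks in 100% DMSO.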

LRRK2 mutant (G2019S) = LRRK2 mutant (G2019S) (Homo sapiens (Human), UniProt Q5S007, G2019S); test: Evaluation of inhibitory activity against LRRK2 (affinity bead competition binding), G2019S mutant; details: read-out: Residual active values (%) LRRK2(G2019S); for remaining binding at 0.1 µM: 100 nM; for remaining binding at 0.5 µM: 500 nM
Chain of LRRK2 mutant (G2019S) (Q5S007 whole entry G2019S, looked up): as the sequence (Q5S007 whole entry, looked up) above, with G2019S counted along it
Method in brief: as §1

influenza virus PR8 = test: microbe, parasite or virus in culture; format: cell-based; details: unidentified influenza virus, PR8, MDCK, read-out: Antiviral activity (EC50, μM) PR8
influenza virus HK = test: microbe, parasite or virus in culture; format: cell-based; details: for EC50: unidentified influenza virus, MDCK, read-out: Antiviral activity (EC50, μM) HK
influenza virus LE = test: microbe, parasite or virus in culture; format: cell-based; details: unidentified influenza virus, MDCK, read-out: Antiviral activity (EC50, μM) LE
in vitro = details: dog
MLK3 = MLK3 (Homo sapiens (Human), UniProt Q16584); test: Evaluation of inhibitory activity of enzyme units, MLK3 ([γ-33P]-ATP filter assay); details: read-out: IC50(nM) MLK3
Chain of MLK3 (Q16584 whole entry, looked up): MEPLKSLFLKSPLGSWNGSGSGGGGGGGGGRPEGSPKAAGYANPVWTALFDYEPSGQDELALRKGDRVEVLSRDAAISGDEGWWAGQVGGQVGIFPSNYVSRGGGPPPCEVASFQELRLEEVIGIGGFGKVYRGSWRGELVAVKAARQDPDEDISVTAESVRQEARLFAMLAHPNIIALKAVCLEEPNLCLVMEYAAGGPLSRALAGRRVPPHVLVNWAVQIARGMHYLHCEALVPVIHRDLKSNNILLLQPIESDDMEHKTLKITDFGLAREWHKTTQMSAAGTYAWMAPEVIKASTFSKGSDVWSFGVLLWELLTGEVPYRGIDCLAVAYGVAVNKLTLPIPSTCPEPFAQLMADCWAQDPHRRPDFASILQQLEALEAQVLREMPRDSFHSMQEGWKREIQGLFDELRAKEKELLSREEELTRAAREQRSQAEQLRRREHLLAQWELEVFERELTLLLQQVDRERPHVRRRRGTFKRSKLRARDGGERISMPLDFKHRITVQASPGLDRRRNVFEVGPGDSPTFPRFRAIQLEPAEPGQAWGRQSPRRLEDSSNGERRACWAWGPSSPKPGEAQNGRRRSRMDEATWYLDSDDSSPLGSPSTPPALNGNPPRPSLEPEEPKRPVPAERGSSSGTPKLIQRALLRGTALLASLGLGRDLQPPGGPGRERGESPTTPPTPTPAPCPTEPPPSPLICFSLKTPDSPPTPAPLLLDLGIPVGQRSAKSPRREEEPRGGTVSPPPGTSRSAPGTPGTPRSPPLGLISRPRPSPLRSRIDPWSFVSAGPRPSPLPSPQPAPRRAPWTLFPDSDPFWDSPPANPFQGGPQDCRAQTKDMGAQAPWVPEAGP

MLK2 = MLK2 (Homo sapiens (Human), UniProt Q02779); test: Evaluation of inhibitory activity of enzyme units, MLK2 ([γ-33P]-ATP filter assay); format: biochemical
α-SMA [9] = test: Fibrosis inhibition evaluation 2, palmitic acid-induced HepG2, real-time PCR, α-SMA; details: palmitic acid-induced HepG2 (Table 8)
TGF-β1 = test: Fibrosis inhibition evaluation 2, palmitic acid-induced HepG2, real-time PCR, TGF-β1
Fibronectin-1 = test: Fibrosis inhibition evaluation 2, palmitic acid-induced HepG2, real-time PCR, Fibronectin-1

Chain of MLK1 (P80192 whole entry, looked up): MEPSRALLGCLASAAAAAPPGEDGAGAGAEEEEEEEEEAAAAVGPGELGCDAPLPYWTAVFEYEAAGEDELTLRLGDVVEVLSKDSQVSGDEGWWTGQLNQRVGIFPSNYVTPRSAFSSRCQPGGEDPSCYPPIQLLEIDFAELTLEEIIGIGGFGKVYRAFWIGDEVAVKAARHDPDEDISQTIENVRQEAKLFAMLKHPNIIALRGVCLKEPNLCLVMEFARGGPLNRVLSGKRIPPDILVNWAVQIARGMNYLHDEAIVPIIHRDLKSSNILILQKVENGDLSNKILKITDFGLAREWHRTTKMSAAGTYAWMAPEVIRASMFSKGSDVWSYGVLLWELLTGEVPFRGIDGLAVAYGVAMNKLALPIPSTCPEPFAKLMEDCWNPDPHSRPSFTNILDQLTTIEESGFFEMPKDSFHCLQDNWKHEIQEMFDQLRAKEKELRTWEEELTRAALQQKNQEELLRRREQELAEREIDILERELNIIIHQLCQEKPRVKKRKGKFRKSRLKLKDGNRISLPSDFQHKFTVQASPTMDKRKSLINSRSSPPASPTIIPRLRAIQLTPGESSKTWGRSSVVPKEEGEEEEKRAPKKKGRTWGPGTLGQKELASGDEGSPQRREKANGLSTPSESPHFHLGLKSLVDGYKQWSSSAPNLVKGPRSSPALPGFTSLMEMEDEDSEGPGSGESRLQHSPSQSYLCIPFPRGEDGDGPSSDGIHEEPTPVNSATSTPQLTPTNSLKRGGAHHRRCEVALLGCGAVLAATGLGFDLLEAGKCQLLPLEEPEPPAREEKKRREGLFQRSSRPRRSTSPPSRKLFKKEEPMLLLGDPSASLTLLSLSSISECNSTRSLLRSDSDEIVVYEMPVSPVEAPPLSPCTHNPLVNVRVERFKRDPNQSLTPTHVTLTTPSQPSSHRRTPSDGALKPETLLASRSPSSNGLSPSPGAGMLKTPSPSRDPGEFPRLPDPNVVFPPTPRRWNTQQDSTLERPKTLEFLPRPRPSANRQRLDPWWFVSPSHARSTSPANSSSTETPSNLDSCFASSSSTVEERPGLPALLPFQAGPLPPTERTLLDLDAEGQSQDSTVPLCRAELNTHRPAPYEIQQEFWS

| Compound | IC50 (MLK1) [nM] | inhibition at 10 µM [5] [%] | inhibition at 10 µM [6] [%] | inhibition at 10 µM [7] [%] | remaining binding at 0.1 µM (LRRK2 wild-type) [%] | remaining binding at 0.5 µM (LRRK2 wild-type) [%] | remaining binding at 0.1 µM (LRRK2 mutant (G2019S)) [%] | remaining binding at 0.5 µM (LRRK2 mutant (G2019S)) [%] | EC50 (influenza virus PR8) [µM] | Selectivity index: CC50/EC50 HK (influenza virus HK) | EC50 (influenza virus HK) [µM] | EC50 (influenza virus LE) [µM] | CC50 at 3 days (in vitro) [µM] | IC50 (MLK3) [nM] | also measured |
| --- | --- | --- | --- | --- | --- | --- | --- | --- | --- | --- | --- | --- | --- | --- | --- |
| CCS(=O)(=O)N1CC[C@H](Nc2c(Br)cnc3[nH]c(-c4cc(C)n(-c5cc(NS(C)(=O)=O)ccc5C)c4C)nc23)C1 [Example 7, N-(3-(3-(6-bromo-7-(((S)-1-(ethylsulfonyl)pyrrolidine-3-yl)amino)-3H-imidazo[4,5-b]pyridine-2-yl)-2,5-dimethyl-1H-pyrrol-1-yl)-4-methylphenyl) methanesulfonamide] | 44 | > 50 | > 50 | > 50 | 2.9 | 0.4 | 2.3 | 1.5 | 31.9 | >2.5 | 40 | > 100 | > 100 | 6 | inhibition at 10 µM [1]: 10 to 50%; inhibition at 10 µM [2]: > 50%; inhibition at 10 µM [3]: 10 to 50%; inhibition at 10 µM [4]: > 50%; Relative degree of expression inhibition (%) α-SMA (α-SMA [8]): 73.1%; Relative degree of expression inhibition (%) Col1A1 (Col1A1): 200.2%; Relative degree of expression inhibition (%) Col6A3 (Col6A3): 116.2% |
| CCS(=O)(=O)N1CC[C@H](Nc2c(Br)cnc3nc(-c4cc(C)n(-c5cccc(NS(C)(=O)=O)c5)c4C)[nH]c23)C1 [Example 12, (S)—N-(3-(3-(6-bromo-7-((1-(ethylsulfonyl)pyrrolidine-3-yl)amino)-1H-imidazo[4,5-b]pyridine-2-yl)-2,5-dimethyl-1H-pyrrol-1-yl)phenyl) methanesulfonamide] | 52 | 10 to 50 | 10 to 50 | > 50 | 16 | 3.7 | 3.6 | 0.5 | 100 | >3.7 | 27 | > 100 | > 100 | 7 | IC50 (MLK2): 65 nM; Relative degree of expression inhibition (%) α-SMA (α-SMA [9]): 49.92%; Relative degree of expression inhibition (%) TGF-β1 (TGF-β1): 113.03%; Relative degree of expression inhibition (%) Fibronectin-1 (Fibronectin-1): 74.32% |

From patent publication US12545673B2, “Imidazopyridine derivative and pharmaceutical composition comprising same as active ingredient” (TSD LIFE SCIENCES CO., LTD., priority 2019, dated 2026)
